Values after ≈ are worked out from the molar mass of the structure shown.
Key:
[1] = Ratio of drug concentration in brain to plasma in C57BL/6 mouse at 10 mg/kg, po measured at 3 hrs; format: ADME, organism-based; conditions: read-out: BPR
[2] = MRT(0 to t) in C57BL/6 mouse at 1 mg/kg, iv and 3 mg/kg, ip measured upto 24 hrs by HPLC-MS analysis; format: ADME, organism-based; conditions: in vivo
[3] = Protein binding in Sprague-Dawley rat brain at 5 uM measured for 4 hrs by equilibrium dialysis method based LC/MS/MS analysis; format: ADME, tissue-based; conditions: read-out: PB (converted)
[4] = Genotoxicity in human TK6 cells assessed as micronuclei formation in absence of S9 fraction by micronucleus test; format: toxicity, cell-based
[5] = AUC(0 to t) in Sprague-Dawley rat at 1 mg/kg, iv measured upto 24 hrs by HPLC-MS analysis; format: ADME, organism-based; parameters: dose 1 mg/kg, time < 24 hrs, route iv; conditions: in vivo
[6] = Ratio of drug concentration in brain to plasma in Sprague-Dawley rat at 1 mg/kg, iv measured at 1 hr by HPLC-MS analysis; format: ADME, organism-based; conditions: brain and plasma, read-out: BPR
[7] = Efflux ratio of apparent permeability across basolateral to apical side over apical to basolateral side in MDCK-MDR1 cells; format: ADME, cell-based, Canis lupus familiaris; conditions: dog
[8] = Cmax in Sprague-Dawley rat at 3 mg/kg, po measured upto 24 hrs by HPLC-MS analysis; format: ADME, organism-based; parameters: dose 3 mg/kg, time < 24 hrs, route po; conditions: in vivo
[9] = Ratio of drug concentration in brain to plasma in C57BL/6 mouse at 30 mg/kg, po measured at 3 hrs; format: ADME, organism-based; conditions: read-out: BPR
[10] = biological target: Phosphatidylinositol 4,5-bisphosphate 3-kinase catalytic subunit beta isoform (Homo sapiens, UniProt P42338); assay: Inhibition of PI3Kbeta (unknown origin)
[11] = Genotoxicity in human TK6 cells assessed as micronuclei formation in presence of S9 fraction by micronucleus test; format: toxicity, subcellular
[12] = Ratio of drug concentration in brain to plasma in C57BL/6 mouse at 30 mg/kg, po measured at 24 hrs; format: ADME, organism-based; conditions: brain and plasma, read-out: BPR
[13] = biological target: Phosphatidylinositol 4,5-bisphosphate 3-kinase catalytic subunit alpha isoform (Homo sapiens, UniProt P42336); assay: Inhibition of PI3Kalpha (unknown origin)
[14] = Ratio of drug concentration in brain to plasma in C57BL/6 mouse at 30 mg/kg, po measured at 1 hr; format: ADME, organism-based; conditions: brain and plasma, read-out: BPR
[15] = Metabolic stability in human liver microsomes assessed as intrinsic clearance at 1 uM incubated for 30 mins in presence of NADPH by LC-MS/MS analysis; format: ADME, Microsome; conditions: read-out: CLH
[16] = Metabolic stability in cynomolgus monkey liver microsomes assessed as intrinsic clearance at 1 uM incubated for 30 mins in presence of NADPH by LC-MS/MS analysis; format: ADME, Macaca fascicularis, Microsome; conditions: read-out: CLH
[17] = biological target: Serine/threonine-protein kinase ATR (Homo sapiens, UniProt Q13535); assay: Inhibition of ATR (unknown origin)-driven CHK1 phosphorylation
[18] = Ratio of drug concentration in brain to plasma in C57BL/6 mouse at 10 mg/kg, po measured at 1 hr; format: ADME, organism-based; conditions: brain and plasma, read-out: BPR
[19] = Volume of distribution at steady state in C57BL/6 mouse at 1 mg/kg, iv and 3 mg/kg, ip measured upto 24 hrs by HPLC-MS analysis; format: ADME, organism-based; conditions: in vivo, read-out: Vdss
[20] = Cmax in po dosed C57BL/6 mouse measured upto 24 hrs by HPLC-MS analysis; format: ADME, organism-based; parameters: time < 24 hrs, route po; conditions: in vivo
[21] = Drug concentration in C57BL/6 mouse plasma at 30 mg/kg, po measured after 3 hrs; format: ADME, organism-based
[22] = Drug concentration in C57BL/6 mouse plasma at 30 mg/kg, po measured after 1 hr; format: ADME, organism-based
[23] = Solubility of compound at pH 6.8; format: physicochemical; conditions: buffer
[24] = Metabolic stability in mouse liver microsomes assessed as intrinsic clearance at 1 uM incubated for 30 mins in presence of NADPH by LC-MS/MS analysis; format: ADME, Microsome; conditions: read-out: CLH
[25] = Plasma protein binding in Sprague-Dawley rat at 5 uM measured for 4 hrs by equilibrium dialysis method based LC/MS/MS analysis; format: ADME, cell-free; conditions: read-out: PPB (converted)
[26] = Drug concentration in C57BL/6 mouse brain at 30 mg/kg, po measured after 1 hr; format: ADME, organism-based; conditions: read-out: Ct
[27] = biological target: Cytochrome P450 2D6 (Homo sapiens, UniProt P10635); assay: Inhibition of CYP2D6 (unknown origin); format: ADME
[28] = Phototoxicity against mouse BALB/3T3 clone A31 cells assessed as reduction in cell viability incubated for 1 hr followed by irradiated with 5 J/cm^2 of light dose measured after 24 hrs by neutral red uptake assay; format: toxicity, cell-based; conditions: balb/3t3 clone a31, 1 h
[29] = Bioavailability in Sprague-Dawley rat at 3 mg/kg, po and 1 mg/kg, iv measured upto 24 hrs by HPLC-MS analysis; format: ADME, organism-based; conditions: in vivo
[30] = biological target: T1, Phosphatidylinositol 4,5-bisphosphate 3-kinase catalytic subunit delta isoform (Homo sapiens, UniProt O00329); assay: Inhibition of PI3Kdelta (unknown origin)
T1 sequence (O00329 whole entry): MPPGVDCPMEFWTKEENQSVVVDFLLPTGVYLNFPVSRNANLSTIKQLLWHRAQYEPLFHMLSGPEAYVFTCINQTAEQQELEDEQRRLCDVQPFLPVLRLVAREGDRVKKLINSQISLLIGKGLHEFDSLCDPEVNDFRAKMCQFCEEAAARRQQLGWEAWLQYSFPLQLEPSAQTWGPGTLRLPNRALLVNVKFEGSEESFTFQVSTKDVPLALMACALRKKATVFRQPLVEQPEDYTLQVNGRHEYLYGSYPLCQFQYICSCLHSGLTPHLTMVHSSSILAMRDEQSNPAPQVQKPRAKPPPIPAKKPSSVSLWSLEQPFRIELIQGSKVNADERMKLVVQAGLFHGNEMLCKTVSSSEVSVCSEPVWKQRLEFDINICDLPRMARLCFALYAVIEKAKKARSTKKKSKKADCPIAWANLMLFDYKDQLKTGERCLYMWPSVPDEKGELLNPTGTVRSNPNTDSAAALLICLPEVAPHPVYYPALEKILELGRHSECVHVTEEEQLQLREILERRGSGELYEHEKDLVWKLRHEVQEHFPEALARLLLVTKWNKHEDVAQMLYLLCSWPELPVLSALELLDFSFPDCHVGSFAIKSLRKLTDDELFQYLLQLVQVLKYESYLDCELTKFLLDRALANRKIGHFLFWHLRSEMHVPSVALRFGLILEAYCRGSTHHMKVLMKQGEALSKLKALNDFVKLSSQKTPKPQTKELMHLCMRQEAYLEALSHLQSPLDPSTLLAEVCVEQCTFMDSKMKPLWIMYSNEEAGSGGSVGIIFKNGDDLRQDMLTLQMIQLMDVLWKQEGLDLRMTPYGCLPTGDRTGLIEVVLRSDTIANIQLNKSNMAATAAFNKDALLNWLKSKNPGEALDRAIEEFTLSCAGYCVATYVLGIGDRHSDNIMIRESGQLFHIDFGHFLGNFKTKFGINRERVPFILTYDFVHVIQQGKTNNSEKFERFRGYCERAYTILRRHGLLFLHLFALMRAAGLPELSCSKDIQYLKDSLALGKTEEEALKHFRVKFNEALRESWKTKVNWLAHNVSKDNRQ

Serine/threonine-protein kinase ATR, sequence (Q13535 whole entry): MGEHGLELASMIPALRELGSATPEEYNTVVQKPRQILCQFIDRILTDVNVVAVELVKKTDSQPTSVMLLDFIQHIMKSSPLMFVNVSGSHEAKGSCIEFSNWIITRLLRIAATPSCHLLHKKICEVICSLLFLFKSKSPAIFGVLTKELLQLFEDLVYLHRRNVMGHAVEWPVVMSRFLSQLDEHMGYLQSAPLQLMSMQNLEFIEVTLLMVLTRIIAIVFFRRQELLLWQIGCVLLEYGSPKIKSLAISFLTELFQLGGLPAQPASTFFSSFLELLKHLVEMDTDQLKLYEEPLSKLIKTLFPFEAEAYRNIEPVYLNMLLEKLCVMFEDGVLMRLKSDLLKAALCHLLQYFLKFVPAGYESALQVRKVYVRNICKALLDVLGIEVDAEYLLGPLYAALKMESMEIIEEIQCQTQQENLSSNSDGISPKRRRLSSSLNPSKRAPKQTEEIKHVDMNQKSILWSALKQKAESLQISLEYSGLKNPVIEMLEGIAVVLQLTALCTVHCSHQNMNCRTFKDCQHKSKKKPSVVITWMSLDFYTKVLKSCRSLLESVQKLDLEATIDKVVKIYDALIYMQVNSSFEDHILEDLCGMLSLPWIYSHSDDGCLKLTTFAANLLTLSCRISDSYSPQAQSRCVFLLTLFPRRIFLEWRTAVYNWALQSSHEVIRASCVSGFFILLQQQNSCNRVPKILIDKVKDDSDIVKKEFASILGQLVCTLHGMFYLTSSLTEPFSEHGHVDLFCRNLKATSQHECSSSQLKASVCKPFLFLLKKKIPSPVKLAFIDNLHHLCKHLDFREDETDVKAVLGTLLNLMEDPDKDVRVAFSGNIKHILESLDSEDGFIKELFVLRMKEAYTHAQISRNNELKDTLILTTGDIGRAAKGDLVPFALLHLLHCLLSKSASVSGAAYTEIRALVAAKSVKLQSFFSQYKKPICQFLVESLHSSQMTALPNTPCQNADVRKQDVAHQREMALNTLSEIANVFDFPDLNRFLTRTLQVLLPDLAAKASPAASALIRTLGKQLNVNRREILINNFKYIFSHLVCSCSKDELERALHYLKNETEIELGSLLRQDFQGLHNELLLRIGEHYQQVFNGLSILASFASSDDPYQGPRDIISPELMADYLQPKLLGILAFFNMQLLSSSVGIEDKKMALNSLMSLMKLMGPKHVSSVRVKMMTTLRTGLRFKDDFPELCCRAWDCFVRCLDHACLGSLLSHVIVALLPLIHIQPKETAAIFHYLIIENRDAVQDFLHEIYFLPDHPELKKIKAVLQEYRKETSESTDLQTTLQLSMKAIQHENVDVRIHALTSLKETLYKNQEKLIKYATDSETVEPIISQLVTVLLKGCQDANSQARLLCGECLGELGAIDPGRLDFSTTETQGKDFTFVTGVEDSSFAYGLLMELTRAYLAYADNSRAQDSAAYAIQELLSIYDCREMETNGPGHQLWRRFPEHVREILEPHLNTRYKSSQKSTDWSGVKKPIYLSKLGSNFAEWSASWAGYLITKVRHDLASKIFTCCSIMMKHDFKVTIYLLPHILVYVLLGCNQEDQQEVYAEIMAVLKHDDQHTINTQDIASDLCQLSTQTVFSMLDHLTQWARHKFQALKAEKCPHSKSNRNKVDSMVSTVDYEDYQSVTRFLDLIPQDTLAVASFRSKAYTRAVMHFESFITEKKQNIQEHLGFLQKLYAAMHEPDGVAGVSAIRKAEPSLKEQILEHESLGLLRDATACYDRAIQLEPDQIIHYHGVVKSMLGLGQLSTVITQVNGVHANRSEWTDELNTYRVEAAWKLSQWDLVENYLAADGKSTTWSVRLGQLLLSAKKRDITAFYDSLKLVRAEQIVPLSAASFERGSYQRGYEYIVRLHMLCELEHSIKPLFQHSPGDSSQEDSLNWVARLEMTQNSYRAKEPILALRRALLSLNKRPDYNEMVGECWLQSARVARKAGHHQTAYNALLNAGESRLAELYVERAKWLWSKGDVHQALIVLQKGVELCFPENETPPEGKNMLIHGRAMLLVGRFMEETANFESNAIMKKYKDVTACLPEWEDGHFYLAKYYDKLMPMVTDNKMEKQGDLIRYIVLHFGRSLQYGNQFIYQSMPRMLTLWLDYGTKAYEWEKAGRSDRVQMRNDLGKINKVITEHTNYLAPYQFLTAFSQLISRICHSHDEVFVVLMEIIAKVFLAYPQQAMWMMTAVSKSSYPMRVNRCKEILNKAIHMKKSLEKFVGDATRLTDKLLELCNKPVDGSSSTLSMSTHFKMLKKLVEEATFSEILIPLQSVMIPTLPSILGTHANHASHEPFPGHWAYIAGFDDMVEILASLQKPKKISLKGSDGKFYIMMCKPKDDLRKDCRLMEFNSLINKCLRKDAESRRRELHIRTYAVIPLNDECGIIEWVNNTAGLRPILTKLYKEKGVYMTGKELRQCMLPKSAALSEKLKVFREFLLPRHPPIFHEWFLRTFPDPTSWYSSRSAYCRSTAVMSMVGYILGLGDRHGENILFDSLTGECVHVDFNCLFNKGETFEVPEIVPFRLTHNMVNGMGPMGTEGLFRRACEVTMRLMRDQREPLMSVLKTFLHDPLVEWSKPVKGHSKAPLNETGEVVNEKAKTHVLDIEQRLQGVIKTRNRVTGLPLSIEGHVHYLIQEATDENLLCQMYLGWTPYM
Phosphatidylinositol 4,5-bisphosphate 3-kinase catalytic subunit alpha isoform, sequence (P42336 whole entry, canonical isoform): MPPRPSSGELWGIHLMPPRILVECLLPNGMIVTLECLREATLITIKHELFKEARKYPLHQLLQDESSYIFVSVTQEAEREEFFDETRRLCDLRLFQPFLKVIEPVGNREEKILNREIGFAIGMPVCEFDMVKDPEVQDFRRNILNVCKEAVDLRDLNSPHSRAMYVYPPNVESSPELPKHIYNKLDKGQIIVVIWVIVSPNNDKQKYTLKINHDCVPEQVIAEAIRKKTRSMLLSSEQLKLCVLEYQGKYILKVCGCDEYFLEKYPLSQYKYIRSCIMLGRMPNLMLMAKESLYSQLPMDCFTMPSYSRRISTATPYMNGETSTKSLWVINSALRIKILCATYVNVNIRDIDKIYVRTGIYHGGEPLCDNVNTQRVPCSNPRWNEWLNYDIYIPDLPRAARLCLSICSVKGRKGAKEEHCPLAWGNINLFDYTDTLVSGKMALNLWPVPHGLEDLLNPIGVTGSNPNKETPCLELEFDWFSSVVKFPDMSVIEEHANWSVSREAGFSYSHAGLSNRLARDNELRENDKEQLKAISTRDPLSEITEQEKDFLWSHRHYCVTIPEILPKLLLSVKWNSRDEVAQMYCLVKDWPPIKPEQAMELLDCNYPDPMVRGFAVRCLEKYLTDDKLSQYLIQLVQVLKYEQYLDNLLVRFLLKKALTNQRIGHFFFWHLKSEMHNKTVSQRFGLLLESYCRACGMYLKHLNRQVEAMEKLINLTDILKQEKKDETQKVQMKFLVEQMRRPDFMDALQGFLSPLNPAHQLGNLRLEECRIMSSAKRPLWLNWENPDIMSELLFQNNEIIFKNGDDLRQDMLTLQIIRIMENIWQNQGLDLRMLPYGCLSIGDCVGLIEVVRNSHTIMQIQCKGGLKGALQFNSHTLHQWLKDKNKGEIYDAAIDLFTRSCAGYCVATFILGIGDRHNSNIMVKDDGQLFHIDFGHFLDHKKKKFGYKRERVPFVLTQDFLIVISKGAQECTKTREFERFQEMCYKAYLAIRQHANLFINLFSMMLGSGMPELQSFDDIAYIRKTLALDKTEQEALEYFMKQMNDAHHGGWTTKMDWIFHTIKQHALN
Phosphatidylinositol 4,5-bisphosphate 3-kinase catalytic subunit beta isoform, sequence (P42338 whole entry, canonical isoform): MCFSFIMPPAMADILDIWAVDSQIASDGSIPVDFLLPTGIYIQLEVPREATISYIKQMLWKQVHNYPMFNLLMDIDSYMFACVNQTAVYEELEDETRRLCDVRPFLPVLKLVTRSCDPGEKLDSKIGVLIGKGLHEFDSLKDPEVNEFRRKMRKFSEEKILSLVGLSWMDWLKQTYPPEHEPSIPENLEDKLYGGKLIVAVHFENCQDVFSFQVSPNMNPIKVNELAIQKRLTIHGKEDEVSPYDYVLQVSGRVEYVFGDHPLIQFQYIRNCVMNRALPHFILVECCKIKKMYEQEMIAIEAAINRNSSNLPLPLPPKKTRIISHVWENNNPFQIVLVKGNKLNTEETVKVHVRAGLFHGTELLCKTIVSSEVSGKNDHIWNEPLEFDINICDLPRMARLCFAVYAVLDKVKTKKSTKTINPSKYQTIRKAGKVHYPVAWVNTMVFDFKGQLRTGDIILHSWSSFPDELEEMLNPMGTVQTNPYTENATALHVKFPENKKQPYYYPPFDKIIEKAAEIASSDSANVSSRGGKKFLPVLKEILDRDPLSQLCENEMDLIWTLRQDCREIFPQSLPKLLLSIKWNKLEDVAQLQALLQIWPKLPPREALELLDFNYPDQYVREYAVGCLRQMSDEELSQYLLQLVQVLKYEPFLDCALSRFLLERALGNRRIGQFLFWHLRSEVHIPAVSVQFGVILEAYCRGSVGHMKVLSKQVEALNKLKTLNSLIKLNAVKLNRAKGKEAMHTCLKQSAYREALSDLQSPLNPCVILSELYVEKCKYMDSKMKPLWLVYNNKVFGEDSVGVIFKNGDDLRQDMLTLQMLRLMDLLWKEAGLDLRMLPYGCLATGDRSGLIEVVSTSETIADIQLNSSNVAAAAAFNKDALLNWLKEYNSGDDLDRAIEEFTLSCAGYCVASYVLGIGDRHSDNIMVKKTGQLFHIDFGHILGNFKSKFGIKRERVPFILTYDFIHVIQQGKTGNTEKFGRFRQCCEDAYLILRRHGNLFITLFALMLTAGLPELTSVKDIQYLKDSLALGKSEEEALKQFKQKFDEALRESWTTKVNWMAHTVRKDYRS

| Compound | Kp at 3 h [1] | MRT last at 24 h [2] | fraction unbound at 4 h, 5 µM [3] | Activity [4] | AUC(0-t) at 24 h [5] | Kp at 1 h [6] | efflux ratio [7] | Cmax [8] | Kp at 3 h [9] | IC50 [10] | Activity [11] | Kp at 24 h [12] | IC50 [13] | Kp at 1 h [14] | microsomal CLint at 1 µM [15] | microsomal CLint at 1 µM [16] | IC50 [17] | Kp at 1 h [18] | Vd [19] | Cmax [20] | other results |
| --- | --- | --- | --- | --- | --- | --- | --- | --- | --- | --- | --- | --- | --- | --- | --- | --- | --- | --- | --- | --- | --- |
| C[C@@H]1COCCN1c1cc(N2CCOC[C@@H]2C)nc2[nH]c(-c3cscn3)nc12 | 0.59 | 3.4 h | 0.086 | Non-Toxic | 2.39 µM·h | 0.35 | 0.87 | 1.73 µM | 0.75 | > 10 µM | Non-Toxic | 0.66 | > 10 µM | 1.29 | 3.4 µL/min/mg | 31 µL/min/mg | 14.4 µM | 0.97 | 2.8 L/kg | 1920 nM | concentration at 3 h [21]: 8.42 µM; concentration at 1 h [22]: 10.2 µM; solubility [23]: 20 µg/mL (≈ 49.9 µM); microsomal CLint at 1 µM [24]: 13 µL/min/mg; fraction unbound at 4 h, 5 µM [25]: 0.18; concentration at 1 h [26]: 13.1 µM; IC50 [27]: > 50 µM; Activity [28]: Toxic; bioavailability [29]: 107%; IC50 [30]: > 10 µM |
| C[C@@H]1COCCN1c1cc(N2CCOC[C@@H]2C)nc2[nH]c(-c3ccccn3)nc12 | 0.51 | 2.3 h | 0.035 | Non-Toxic | 8.09 µM·h | 0.48 | 0.48 | 5.05 µM | 0.65 | > 10 µM | Non-Toxic | 0.7 | > 10 µM | 1.03 | 22 µL/min/mg | 115 µL/min/mg | 17.2 µM | 0.6 | 2.6 L/kg | 1260 nM | concentration at 3 h [21]: 4.16 µM; concentration at 1 h [22]: 3.93 µM; solubility [23]: 180 µg/mL (≈ 456 µM); microsomal CLint at 1 µM [24]: 24 µL/min/mg; fraction unbound at 4 h, 5 µM [25]: 0.134; concentration at 1 h [26]: 4.05 µM; IC50 [27]: > 50 µM; Activity [28]: Non-Toxic; bioavailability [29]: 122%; IC50 [30]: > 10 µM |

— ChEMBL document CHEMBL5331134, “Identification of Brain-Penetrant ATP-Competitive mTOR Inhibitors for CNS Syndromes” (J Med Chem, 2023)
